# Measurements taken from patent US20020111314A1, “Novel stimulation of gene expression and protein synthesis of heat shock protein 72/73 (Hsp 70)” (The Trustees of Columbia University, priority 1995, published 2002).
# Square brackets hold non-standard residues; d marks the D form. Peptide text beside a SMILES is read from it. Nle = CCCC[C@H](N)C(=O)O
# System: Hsp70
# Assay: Hsp70 turnover (pulse-chase) in HepG2 cells
# Type: cell-based, human
# Description: FIGS. 4A-4B: Effects of ALLN on Hsp70 turnover and synthesis rates in HepG2 cells. Confluent culture dishes were preincubated for 4 hours with serum-free MEM containing either 1.5% BSA alone (Control) or BSA plus 40 μg/ml of ALLN (ALLN). (A) The preincubated cells were radiolabeled with 3H-leucine (150 μCi/ml) in serum-free, leucine-free medium with/without ALLN for 20 min., washed 3 times with medium free of isotope and then chased in serum-free medium containing BSA with/without ALLN for up to 20 hours. At the indicated time points, cells were harvested and lysed. Samples were immediately stored in a −80° C. freezer. Immunoprecipitation of Hsp70 was performed as described in FIG. 1. […]
# FIGS. 8A-8C: Effects of ALLN on Hsp70 synthesis and turnover rates in HepG2 cells. […] Immunoprecipitates were analyzed on SDS-PAGE and fluorography (A) and also aliquoted for scintillation counting (B). […]
# Since ALLN is a cysteine protease inhibitor, the possibility that protection of Hsp70 from proteolytic degradation accounted for the sharp increase in Hsp70 induced by ALLN was tested (Rock, et al., 1994; Ward, et al., 1995; Hiwasa, et al., 1990; Inoue, et al., 1991; and Sakata, et al., 1993). To determine whether ALLN stabilizes Hsp70, the turnover rate of radiolabeled Hsp70 in the presence or absence of ALLN (40 μg/ml) was measured in a pulse-chase experiment. […]
compound,measurement,setting,value
"CCCC[C@@H](C=O)NC(=O)[C@H](CC(C)C)NC(=O)[C@H](CC(C)C)NC(C)=O [ALLN, N-acetyl-leucyl-leucyl-norleucinal] (Ac-Leu-Leu-[Nle]-aldehyde)",increase in the half-life of Hsp70,ALLN 40 μg/ml vs without ALLN,3-4 fold
same,half life of newly synthesized Hsp70 in the presence of ALLN,"ALLN 40 μg/ml, pulse-chase",about 6 hours
